Laboratory results reported in the NIST ThermoML archive (doi:10.1021/acs.jced.9b00525).
Numbers after ± are expanded uncertainties.

Conditions: Surface laser light scattering (SLLS); for viscosity: Liquid

Row | Structure (SMILES) | surface tension liquid-gas (293.15 K) | viscosity (293.15 K) | surface tension liquid-gas (303.15 K) | viscosity (303.15 K) | surface tension liquid-gas (313.15 K) | viscosity (313.15 K) | surface tension liquid-gas (323.15 K) | viscosity (323.15 K) | surface tension liquid-gas (348.15 K) | viscosity (348.15 K) | surface tension liquid-gas (373.15 K) | viscosity (373.15 K) | surface tension liquid-gas (398.15 K) | viscosity (398.15 K) | surface tension liquid-gas (423.15 K) | viscosity (423.15 K) | surface tension liquid-gas (448.15 K) | viscosity (448.15 K) | surface tension liquid-gas (473.15 K) | viscosity (473.15 K) | further results
1 | CCCCCCCCCC [decane] | 23.05 ± 0.57 mN/m | 0.9005 ± 0.029 mPa·s | 22.39 ± 0.48 mN/m | 0.79 ± 0.026 mPa·s | 21.43 ± 0.46 mN/m | 0.6924 ± 0.025 mPa·s | 20.61 ± 0.44 mN/m | 0.6091 ± 0.022 mPa·s | 18.75 ± 0.39 mN/m | 0.4636 ± 0.019 mPa·s | 16.52 ± 0.36 mN/m | 0.3614 ± 0.016 mPa·s | 14.38 ± 0.31 mN/m | 0.2895 ± 0.015 mPa·s | 12.4 ± 0.32 mN/m | 0.2403 ± 0.013 mPa·s | 10.29 ± 0.22 mN/m | 0.1978 ± 0.012 mPa·s | 8.52 ± 0.23 mN/m | 0.1677 ± 0.012 mPa·s | surface tension liquid-gas (283.15 K): 23.94 ± 0.52 mN/m; viscosity (283.15 K): 1.077 ± 0.035 mPa·s; surface tension liquid-gas (498.15 K): 6.58 ± 0.16 mN/m; viscosity (498.15 K): 0.1366 ± 0.011 mPa·s; surface tension liquid-gas (523.15 K): 4.97 ± 0.12 mN/m; viscosity (523.15 K): 0.1138 ± 0.01 mPa·s; surface tension liquid-gas (548.15 K): 3.43 ± 0.1 mN/m; viscosity (548.15 K): 0.0974 ± 0.01 mPa·s; surface tension liquid-gas (573.15 K): 1.94 ± 0.09 mN/m; viscosity (573.15 K): 0.0762 ± 0.0098 mPa·s
2 | CCCCCCCCCCCCCCCC [hexadecane] | 27.38 ± 0.64 mN/m | 3.486 ± 0.1 mPa·s | 26.6 ± 0.7 mN/m | 2.772 ± 0.095 mPa·s | 25.56 ± 0.31 mN/m | 2.261 ± 0.081 mPa·s | 24.28 ± 0.41 mN/m | 1.84 ± 0.061 mPa·s | 22.19 ± 0.31 mN/m | 1.236 ± 0.047 mPa·s | 20.31 ± 0.23 mN/m | 0.8927 ± 0.03 mPa·s | 18.54 ± 0.14 mN/m | 0.6788 ± 0.024 mPa·s | 16.69 ± 0.25 mN/m | 0.5351 ± 0.02 mPa·s | 15.09 ± 0.14 mN/m | 0.4256 ± 0.018 mPa·s | 13.26 ± 0.21 mN/m | 0.344 ± 0.016 mPa·s | surface tension liquid-gas (498.15 K): 11.46 ± 0.19 mN/m; viscosity (498.15 K): 0.2862 ± 0.015 mPa·s; surface tension liquid-gas (523.15 K): 9.72 ± 0.28 mN/m; viscosity (523.15 K): 0.236 ± 0.013 mPa·s; surface tension liquid-gas (548.15 K): 8.25 ± 0.22 mN/m; viscosity (548.15 K): 0.1937 ± 0.013 mPa·s; surface tension liquid-gas (573.15 K): 7 ± 0.29 mN/m; viscosity (573.15 K): 0.1705 ± 0.012 mPa·s
3 | CCCCCC [hexane] | 18.22 ± 0.17 mN/m | 0.3127 ± 0.015 mPa·s | 17.34 ± 0.19 mN/m | 0.2809 ± 0.014 mPa·s | 16.22 ± 0.21 mN/m | 0.2546 ± 0.014 mPa·s | 15.31 ± 0.14 mN/m | 0.234 ± 0.013 mPa·s | 12.94 ± 0.12 mN/m | 0.1905 ± 0.012 mPa·s | 10.53 ± 0.1 mN/m | 0.155 ± 0.011 mPa·s | 8.21 ± 0.08 mN/m | 0.1268 ± 0.011 mPa·s | 5.98 ± 0.06 mN/m | 0.1026 ± 0.01 mPa·s | 3.75 ± 0.07 mN/m | 0.0837 ± 0.0097 mPa·s | 1.89 ± 0.03 mN/m | 0.0655 ± 0.0093 mPa·s | surface tension liquid-gas (283.15 K): 19.28 ± 0.22 mN/m; viscosity (283.15 K): 0.3495 ± 0.016 mPa·s
4 | CCCCCCCC [octane] | 21.31 ± 0.24 mN/m | 0.5523 ± 0.021 mPa·s | 20.53 ± 0.23 mN/m | 0.4828 ± 0.019 mPa·s | 19.45 ± 0.22 mN/m | 0.432 ± 0.018 mPa·s | 18.64 ± 0.21 mN/m | 0.387 ± 0.017 mPa·s | 16.37 ± 0.21 mN/m | 0.3079 ± 0.015 mPa·s | 14 ± 0.14 mN/m | 0.2487 ± 0.014 mPa·s | 11.9 ± 0.12 mN/m | 0.2028 ± 0.013 mPa·s | 9.81 ± 0.15 mN/m | 0.1665 ± 0.012 mPa·s | 7.88 ± 0.07 mN/m | 0.1393 ± 0.011 mPa·s | 5.82 ± 0.1 mN/m | 0.1168 ± 0.01 mPa·s | surface tension liquid-gas (283.15 K): 22.25 ± 0.19 mN/m; viscosity (283.15 K): 0.6247 ± 0.023 mPa·s; surface tension liquid-gas (498.15 K): 4 ± 0.13 mN/m; viscosity (498.15 K): 0.0947 ± 0.01 mPa·s; surface tension liquid-gas (523.15 K): 2.32 ± 0.06 mN/m; viscosity (523.15 K): 0.0755 ± 0.0095 mPa·s
